# In patent US20030162759A1, “Aldosterone blocker therapy to prevent or treat inflammation-related disorders” (priority 2000, published 2003):
# “Also recorded” adds a separate entry of the source.
# Columns and labels:
# Assay type in all cases: in vivo, rat
# osteopontin [1] = assay: Assay B aldosterone infusion model: serum (circulating) osteopontin at 28 days; details: NaCl 1% drinking rats with aldosterone and eplerenone
# Experimental: Assay B: In vivo Aldosterone Infusion Model Male Sprague Dawley rats (n=39; BW=250 g) […] Uni-nephrectomy performed during implantation of mini-pumps 2. Aldosterone ([…], sc via aizet minipump) 2. […] Sacrifice after 4 weeks.
# osteopontin [2] = assay: Assay B aldosterone infusion model: osteopontin mRNA in heart by quantitative RT-PCR (Taqman)
# Experimental: Assay B: In vivo Aldosterone Infusion Model Male Sprague Dawley rats (n=39; BW=250 g) […] Uni-nephrectomy performed during implantation of mini-pumps […] Aldosterone ([…], sc via aizet minipump) […] 1. […] Sacrifice after 4 weeks. Hearts were harvested and divided by half through a transverse section at the mid-ventricles: The upper half was stored into formalin. The bottom part was snap-frozen in liquid nitrogen for biochemical analysis. Determination of osteopontin and COX-2 was performed by quantitative RT-PCR (Taqman). Osteopontin was also identified in the heart by immunohistochemistry.
# [3] = test system: osteopontin, ED-1, CD-3, ICAM-1, VCAM-1; assay: Assay C: immunohistochemistry of myocardial tissue (osteopontin, ED-1, CD-3, ICAM-1, VCAM-1); details: aldosterone+salt treated rats; eplerenone 100 mg/kg/day
# Experimental: The procedure of Assay B was expanded upon in a further study. […] Myocardial tissue from animals in each treatment group was examined after 7, 14, or 30 days of treatment. […] Lesions were preceded by the expression and progressive upregulation of proinflammatory molecules.
# Potassium chloride supplementation was added to the saline solution in order to prevent the potential hypokalemia associated with aldosterone excess.
# At the time of the surgery, an Alzet 2002 osmotic minipump (Alza Corp., Palo Alto, Calif.) containing either vehicle (9% ethanol/87% propylene glycol/4% dH2O) or 1.0 mg/mL d-aldosterone (Sigma Chemical, St. Louis, Mo.) was inserted subcutaneously at the nape of the neck. Aldosterone was administered at a dose of 0.75 g/hour. […] Animals were sacrificed from each group (n=8-13) after 7, 14, or 30 days of treatment.
# Five m sections were deparaffinized in xylene (two, 5-10 min incubations) and rehydrated by 3 min incubations in ethanol as follows: two incubations in 100% ethanol followed by two incubations in 95% alcohol and one incubation in 70% alcohol. Once hydrated, sections were rinsed in tap water for 1 min and distilled water for 1 min. Endogenous peroxide activity was blocked by placing slides in 3.0% H2O2 for 15 min followed by a 5 min rinse in distilled water. Slides were processed for antigen retrieval using citric acid, pH 6.0. […]
# [4] = test system: angiotensin II infused, captopril treated stroke prone spontaneously hypertensive rats; assay: Angiotensin II infused, captopril treated stroke prone spontaneously hypertensive rats: urinary protein excretion and renal injury (FIGS. 35-36)
# [5] = test system: stroke-prone spontaneously hypertensive rats; assay: Stroke-prone spontaneously hypertensive rats: survival and cerebral injury (FIGS. 37-38); details: stroke-prone spontaneously hypertensive rats (FIGS. 37, 38)
compound,measurement,setting,value
"COC(=O)[C@@H]1CC2=CC(=O)CC[C@]2(C)[C@@]23O[C@@H]2C[C@@]2(C)[C@@H](CC[C@@]24CCC(=O)O4)[C@H]13 [eplerenone, Pregn-4-ene-7,21-dicarboxylic acid, 9,11-epoxy-17-hydroxy-3-oxo-, γ-lactone, methyl ester, (7α, 11α, 17β) -]",Circulating (serum) osteopontin levels,osteopontin [1],marked decrease in circulating osteopontin levels
same,Osteopontin upregulation in myocardium,osteopontin [2]; aldosterone infused rats (FIG. 30),prevention by eplerenone of osteopontin upregulation
same,Osteopontin relative mRNA expression,"osteopontin [2]; heart, quantitative RT-PCR, aldosterone/salt rats, 4 weeks, eplerenone 100 mpk p.o.",2.5±0.6
same,Staining in myocardial tissue for marker proteins (immunohistochemistry),[3],markedly blunted the aldosterone+salt treatment induced staining
same,Urinary protein excretion,[4]; captopril treated SHRSP (FIG. 35),inhibition of increased urinary protein excretion
same,Histopathological scores for renal injury,[4]; captopril treated SHRSP (FIG. 36),reduction in histopathological scores for renal injury
same,Cerebral injury,[5],reduced cerebral injury; also recorded: decrease in cerebral injury
